Assay results as given in publication PMC10866072, “Design, synthesis, molecular modelling and biological evaluation of novel 6-amino-5-cyano-2-thiopyrimidine derivatives as potent anticancer agents against leukemia and apoptotic inducers” (Journal of Enzyme Inhibition and Medicinal Chemistry, 2024).
Where two headings read alike, the source gives them in different places.

Legend:
A549/ATCC = assay type: cell-based
HOP-62 = assay type: cell-based
HOP-92 = assay type: cell-based
NCI-H460 = assay type: cell-based
HCT-15 = assay type: cell-based
SW-620 = assay type: cell-based
MDA-MB-435 = assay type: cell-based
SK-MEL-28 = assay type: cell-based
OVCAR-4 = assay type: cell-based
OVCAR-8 = assay type: cell-based
SK-OV-3 = assay type: cell-based
ACHN = assay type: cell-based
MDA-MB-468 = assay type: cell-based
HL60 cells = assay: Annexin V-FITC/PI apoptosis and necrosis assay; assay type: cell-based, human; settings: HL60, 48 h treatment
Protocol: (§1) For more assessment of compound 1c, apoptosis assay was performed using annexin V-FITC Apoptosis detection kit (Biovision, cat#: K101-25) followed by flow cytometric analysis[92]^,[93]. Briefly, HL60 and leukaemia SR cells were cultured under optimum conditions followed by compound I c treatment for 48 h. then, washed in PBS, centrifuged, and resuspended in 500 µl of 1 x binding buffer. Moreover, 5 µl of annexin V-FITC, and 5 µl of propidium iodide were added and incubated in dark for 5 min. Finally, apoptotic cells were detected using flow cytometer as well as PI staining by emission signal detector. FACS Calibur flow cytometer (Becton Dickinson Biosciences) was used to analyse the cells’ apoptosis.

leukaemia SR cells = assay: Annexin V-FITC/PI apoptosis and necrosis assay; assay type: cell-based, human; settings: 48 h treatment
Protocol: as §1

[1] = test system: Bax protein in HL60 cells; assay: Western blot; assay type: cell-based, human
Protocol: (§2) To assess the effect of compound 1c on protein expression of apoptotic and anti-apoptotic proteins levels, western blotting for selected candidate genes were performed[96]^,[97].Briefly, equal amounts (20 µg) of protein samples were mixed and boiled with SDS Loading buffer for 10 min, allowed to cool on ice and then loaded into SDS-polyacrylamide gel and separated by Cleaver electrophoresis unit (Cleaver, UK), transferred onto polyvinylidene fluoride (PVDF) membranes (BioRad) for 30 min using a Semi-dry Electro blotter (Biorad, USA) at 2.5 A and 25 V for 30 min. Additionally, the membrane was blocked by 5% non-fat dry milk solution in TBS-T for two hours at RT, in order to reduce non-specific protein interactions between the membrane and the antibody. Furthermore, the membrane was incubated overnight at 4 °C with primary antibodies, anti B-actin (Sigma ®), anti-Bax, anti-Bcl2, and anti-P53 (Abcam ®). The blots were then washed for three times (10 min each) with TBS-T. Finally, the membrane was incubated with the corresponding horse radish peroxidase (HRP)- linked secondary antibodies (Dako) for another hour at room temperature, followed by washing for three times (10 min each) with TBS-T. Then, the chemiluminescent reagent (ECL) was added according to the kit instructions and signals were detected by a CCD camera-based imager (Chemi Doc imager, Biorad, USA), and the bands intensities were measured by ImageLab (Biorad).

[2] = test system: Bax protein in leukaemia SR cells; assay: Western blot; assay type: cell-based, human
Protocol: as §2

[3] = test system: Bcl2 protein in HL60 cells; assay: Western blot; assay type: cell-based, human
Protocol: as §2

[4] = test system: Bcl2 protein in leukaemia SR cells; assay: Western blot; assay type: cell-based, human
Protocol: as §2

[5] = test system: P53 protein in HL60 cells; assay: Western blot; assay type: cell-based, human
Protocol: as §2

Colon cancer cell lines = assay: NCI-60 five-dose, subpanel
Text: Furthermore, the average sensitivity of all cell lines to the compound is termed as the full panel mean graph midpoints (MG-MID). The complete panel mean graph midpoints refers to the average sensitivity of all cell lines to the chemical (MG-MID). A measure of a compound’s selectivity for a given cell line is the ratio created by dividing the full panel mean graph midpoints (MG-MID) concentration by the individual subpanel MG-MID concentrations (obtained as the average sensitivity of all the cell lines in a given subpanel to the test compound).
(§3) Assessment of selectivity of a compound depends on the ratio obtained by dividing the full panel MID ^a by their individual subpanel MID ^b (µM) where MID^a is the average sensitivity of all cell lines towards the test agent (µM).

[6] = test system: Ovarian cancer cell lines; assay: NCI-60 five-dose, subpanel
Text: (§4) A measure of a compound’s selectivity for a given cell line is the ratio created by dividing the full panel mean graph midpoints (MG-MID) concentration by the individual subpanel MG-MID concentrations (obtained as the average sensitivity of all the cell lines in a given subpanel to the test compound).
as §3

Breast cancer cell lines = assay: NCI-60 five-dose, subpanel
Text: as §4, §3

[7] = test system: full NCI 60 cell lines panel
[8] = Homo sapiens, one dose 10^-5 M, 48 h
[9] = Homo sapiens, five-dose, read-out: LC50 (the source's name)
[10] = Homo sapiens, one dose 10^-5 M, 48 h, read-out: % growth
[11] = Homo sapiens, read-out: GI50 Subpanel MID^b

For N#Cc1c(N)nc(S)nc1-c1ccc(Cl)cc1Cl [Compound 1c, 4-Amino-6–(2,4-dichlorophenyl)-2-mercaptopyrimidine-5-carbonitrile], the GI50 (A549/ATCC; Homo sapiens, five-dose) was 25.8 µM, the LC50 (A549/ATCC; Homo sapiens, five-dose) was over 100 µM and the % growth at 10 µM (A549/ATCC; [8]) was 90.1%. It also gave a TGI (A549/ATCC; five-dose) of 77.40 µM, a GI50 (HOP-62; Homo sapiens, five-dose) of 18.2 µM and an LC50 (concentration killing 50% of cells) (HOP-62; Homo sapiens, five-dose) of 88.6 µM. For the same compound, the % growth at 10 µM (HOP-62; [8]) was 81.3%, the TGI (HOP-62; five-dose) was 40.20 µM and the GI50 (HOP-92; Homo sapiens, five-dose) was 19.8 µM. It also gave an LC50 (50% lethal concentration) (HOP-92; Homo sapiens, five-dose) of over 100 µM, a % growth at 10 µM (HOP-92; [8]) of 105% and a TGI (HOP-92; five-dose) of 56.40 µM. It also gave a GI50 (NCI-H460; Homo sapiens, five-dose) of 22.1 µM, a CC50 (NCI-H460; [9]) of over 100 µM and an activity at 10 µM (NCI-H460; [10]) of 82.6%. For the same compound, the TGI (NCI-H460; five-dose) was 56.80 µM, the GI50 (HCT-15; Homo sapiens, five-dose) was 0.08 µM and the CC50 (HCT-15; [9]) was 97.9 µM. For the same compound, the activity at 10 µM (HCT-15; [10]) was 10.9%, the TGI (HCT-15; five-dose) was 17.90 µM and the GI50 (SW-620; Homo sapiens, five-dose) was 12 µM. It also gave an LC50 (SW-620; Homo sapiens, five-dose) of 78.6 µM, a % growth at 10 µM (SW-620; [8]) of 45.7% and a TGI (SW-620; five-dose) of 30.70 µM. For the same compound, the GI50 (MDA-MB-435; Homo sapiens, five-dose) was 10.5 µM, the CC50 (MDA-MB-435; [9]) was over 100 µM and the activity at 10 µM (MDA-MB-435; [10]) was 25.3%. For the same compound, the TGI (MDA-MB-435; five-dose) was 38.00 µM, the GI50 (SK-MEL-28; Homo sapiens, five-dose) was 15.2 µM and the CC50 (SK-MEL-28; [9]) was 60.7 µM. The % cell growth at 10 µM (SK-MEL-28; [8]) was 57.7%, the TGI (SK-MEL-28; five-dose) was 30.40 µM and the GI50 (OVCAR-4; Homo sapiens, five-dose) was 32 µM. It also gave a CC50 (OVCAR-4; [9]) of over 100 µM, a % growth at 10 µM (OVCAR-4; [8]) of 81.2% and a TGI (OVCAR-4; five-dose) of over 100 µM. The GI50 (OVCAR-8; Homo sapiens, five-dose) was 21.8 µM, the CC50 (OVCAR-8; [9]) was over 100 µM and the % growth of cells at 10 µM (OVCAR-8; [8]) was 5.74%. For the same compound, the TGI (OVCAR-8; five-dose) was 74.70 µM, the GI50 (SK-OV-3; Homo sapiens, five-dose) was 26.3 µM and the LC50 (SK-OV-3; Homo sapiens, five-dose) was over 100 µM. The % growth at 10 µM (SK-OV-3; [8]) was 126%, the TGI (SK-OV-3; five-dose) was 62.60 µM and the GI50 (ACHN; Homo sapiens, five-dose) was 16.5 µM. It also gave a CC50 (ACHN; [9]) of 62.1 µM, a % growth at 10 µM (ACHN; [8]) of 19.6% and a TGI (ACHN; five-dose) of 32.00 µM. It also gave a GI50 (MDA-MB-468; Homo sapiens, five-dose) of 11.4 µM, a CC50 (MDA-MB-468; [9]) of 55.7 µM and a percent cell growth at 10 µM (MDA-MB-468; [8]) of 35%. For the same compound, the TGI (MDA-MB-468; five-dose) was 25.20 µM, the early apoptosis (HL60 cells) was 23.79% and the late apoptosis (HL60 cells) was 9.89%. The necrosis percentage (HL60 cells) was 3.41%, the early apoptosis (leukaemia SR cells) was 14.97% and the late apoptosis (leukaemia SR cells) was 23.02%. The necrosis percentage (leukaemia SR cells) was 4.72%, the “Bax protein expression vs untreated control” value [1] was “significantly increased the expression” and the “Bax protein expression vs untreated control” value [2] was “significantly increased the expression”. For the same compound, the “Bcl2 protein expression vs untreated control” value [3] was “significantly inhibited the expression”, the “Bcl2 protein expression vs untreated control” value [4] was “significantly inhibited the expression” and the “P53 protein expression vs untreated control” value [5] was “increased the expression of P53 protein significantly”. The GI50 (Colon cancer cell lines; [11]) was 10.9 µM, the “Selectivity ratio (full panel MID^a / subpanel MID^b, GI50 level)” value (Colon cancer cell lines; colon cancer) was 1.2 and the GI50 [6, 11] was 19.2 µM. The “Selectivity ratio (full panel MID^a / subpanel MID^b, GI50 level)” value ([6]; ovarian cancer) was 0.7, the GI50 (Breast cancer cell lines; [11]) was 11.4 µM and the “Selectivity ratio (full panel MID^a / subpanel MID^b, GI50 level)” value (Breast cancer cell lines; breast cancer) was 1.13. For the same compound, the activity at 10 µM ([7]; Homo sapiens, 60 cell, 48 h, read-out: Mean % growth) was 53.3%, the CC50 ([7]; Homo sapiens, 60 cell, read-out: LC50 values (MG-MID)) was 77.6 µM and the GI50 ([7]; Homo sapiens, 60 cell, read-out: MID^a, average sensitivity of all cell lines (GI50)) was 12.9 µM. For the same compound, the GI50 ([7]; Homo sapiens, 60 cell, read-out: full panel GI50 (MG-MID)) was 6.76 µM, the “log10 GI50, range over all 60 cell lines” value ([7]; five-dose) was −4.50 to −7.25 and the “% growth values, cell lines with lethal effect” value ([7]; one dose, range over those cell lines) was −18.77 to −49.21%.
